Measured values from patent publication US20210047693A1, “METHODS OF TREATING EXTRACHROMOSOMAL DNA EXPRESSING CANCERS” (THE REGENTS OF THE UNIVERSITY OF CALIFORNIA, priority 2017, published 2021).

Legend:
Assay type in all cases: cell-based
PC3 cells = experiment: 2D colony formation assay with crystal violet staining; details: PC3 cells compared with immortalized HEK293 cells
Protocol: FIGS. 12A-12C. […] FIG. 12A) Acute cell toxicity following 4 days treatment with 10 μM of indicated PARPi. Cell death measured by FACS analysis of Sytox Red staining in 2 normal cell types (astrocytes and HEK293), PC3 ecDNA-containing cells, and the paired GBM39 cells. FIG. 12B) 2D colony formation assay and crystal violet staining in immortalized HEK293 cells and PC3 cells after treatment with Olaparib or Rucaparib. FIG. 12C) Colony number quantification by Colony Area software plug-in for ImageJ from data in (FIG. 12B).

[1] = system: isogenic paired COLO320 cells; experiment: 3D soft agar assay; details: COLO320 isogenic pair (colon cancer cell line)
Text: (§1) FIGS. 13A-13B. […] FIG. 13A) 3D soft agar assay in isogenic paired GBM39 cells treated with Olaparib or Rucaparib. Quantification of colonies as measured by ColonyArea software (bottom). FIG. 13B) 3D soft agar assay in isogenic paired COLO320 cells (a colon cancer cell line) treated with Olaparib or Rucaparib. Quantification of colonies as measured by ColonyArea software (bottom).

[2] = system: isogenic paired GBM39 cells; experiment: 3D soft agar assay; details: GBM39 isogenic pair
Text: as §1

GBM cells [3] = experiment: Loss of EGFR-containing ecDNA / EGFR oncogene DNA (number of ecDNAs per metaphase)
GBM39 cells = experiment: Exosomal export of oncogenes amplified on ecDNA (FISH probe and PCR analysis of purified exosomes); details: exosomes purified from treated GBM39 cells
GBM cells [4] = experiment: Glucose levels in cells
ecDNA = experiment: Replication stress on ecDNA versus chromosomal DNA; details: vehicle versus erlotinib; ecDNA vs chromosomal DNA

| Compound | 2D colony formation (colony number) (PC3 cells) | 3D soft agar colonies [1] | 3D soft agar colonies [2] | loss of ecDNA containing amplified EGFRvIII (number of ecDNAs per metaphase) (GBM cells [3]) | cellular level of oncogenes amplified on ecDNA, via exosomal export (GBM39 cells) | glucose levels in GBM cells (GBM cells [4]) | replication stress on ecDNA (frequency of pRPA(533) positive metaphase) (ecDNA) |
| --- | --- | --- | --- | --- | --- | --- | --- |
| O=C(c1cc(Cc2n[nH]c(=O)c3ccccc23)ccc1F)N1CCN(C(=O)C2CC2)CC1 [Olaparib, olaparib] | sensitive to PARP inhibition | sensitive to PARP inhibition | sensitive to PARP inhibition | – | – | – | – |
| CNCc1ccc(-c2[nH]c3cc(F)cc4c3c2CCNC4=O)cc1 [Rucaparib, rucaparib] | sensitive to PARP inhibition | sensitive to PARP inhibition | sensitive to PARP inhibition | – | – | – | – |
| C#Cc1cccc(Nc2ncnc3cc(OCCOC)c(OCCOC)cc23)c1 [erlotinib] | – | – | – | causes the loss of ecDNA containing amplified EGFRvIII | reduction of cellular level of oncogenes amplified on ecDNA | lowers glucose levels in GBM cells | specifically causes replication stress on ecDNA, but not on chromosomal DNA |
